Measured values taken from US11401264B2, “Heterocyclic compound” (Orizuru Therapeutics, Inc., priority 2018, dated 2022).

Columns and labels:
[1] = test system: cardiomyocytes (embryoid bodies) from double knock-in human iPS cell lines (mCherry at TNNI3 locus); test: Experimental Example 2: mCherry expression in TNNI1+ cells by flow cytometry; format: cell-based; details: 3 μM, 8th-16th day, DMSO control 7.8
Protocol: For detection of cardiomyocyte maturation, double knock-in human iPS cell lines, in which reporter protein sequences, EmGFP (Sequence Number 1) and mCherry (Sequence Number 2) were inserted into gene loci for TNNI1 and TNNI3, respectively, were prepared (the human iPS cells were prepared from episomal vector (loaded gene; OCT3/4, KLF4, SOX2, L-MYC, LIN28, mouse p53DD) using PBMC (LP_167, Sample ID: 20130318) purchased from CTL (reference literature; Okita K, et al. Stem Cells. 2012 Nov. 29. doi: 10.1002/stem.1293)).
The maintenance culture of the above-mentioned reporter iPS cell lines was carried out by a conventional method (Okita K, et al. Stem Cells. 2012 Nov. 29. doi: 10.1002/stem.1293).
For differentiation induction into cardiomyocytes, the reporter iPS cell lines were treated with 0.5×TrypLE select (Life Technologies, diluted in 1/2 with 0.5 mM EDTA/PBS) for 4 to 5 minutes, and the cells were exfoliated using a cell scraper (IWAKI), and then dissociated into the single cell by pipetting. The medium was removed by centrifugation (1,000 rpm, 5 min), and the obtained cells were suspended in a medium prepared by adding 1% L-glutamine, transferrin 150 μg/mL, ascorbic acid 50 μg/mL (Sigma), monothioglycerol […], 10 μM Rock inhibitor (Y-27632), 2 ng/mL BMP4 (R&D) and 0.5% Matrigel (Growth Factor Reduced) to StemPro-34 SFM (ThermoFisher) in a 6 well-plate by 2×10^6 cells/1.5 mL/well, and then subjected to static culture at 37° C., under 5% oxygen condition to form embryoid bodies (0 day).
Next day (1st day), a medium prepared by adding 1% L-glutamine, transferrin 150 μg/mL, ascorbic acid 50 μg/mL (Sigma), monothioglycerol 4><10^−4 M, 1.8 μL (concentration 12 ng/mL) of 10 μg/mL activin A, […] (concentration 10 ng/mL) of 10 μg/mL bFGF and 2.7 μL (concentration 18 ng/mL) of 10 μg/mL BMP4 to 1.5 mL of StemPro-34 SFM (ThermoFisher) was added to each well of the 6 well plate containing the embryoid bodies to adjust the volume combined with the 0 day's medium to final 3 mL (activin A: 6 ng/ml, bFGF: 5 ng/ml, BMP4: 10 ng/ml), and the embryoid bodies were cultured at 37° C. for additional 2 days, under 5% oxygen condition.
Then (3rd day), the 6 well plate containing the embryoid bodies was inclined, and then left to stand for 1 to 2 minutes until the embryoid bodies were precipitated at the edges of the wells, and the supernatant was aspirated so as not to suck the embryoid bodies. Then, IMDM (ThermoFisher) medium was added to each well, and, as above, the plate was inclined, and then left to stand for 1 to 2 minutes, and the supernatant was aspirated so as not to suck the embryoid bodies. A medium prepared by adding 1% L-glutamine, transferrin 150 μg/mL, ascorbic acid 50 μg/mL (Sigma), monothioglycerol 4×10^−4 M, 10 ng/mL VEGF, 1 μM IWP-3, 0.6 μM dorsomorphin and 5.4 μM SB431542 to 3 mL of StemPro-34 SFM (ThermoFisher) was added to each well of the 6 well plate, and then the embryoid bodies were cultured at 37° C. for 3 days, under 5% oxygen condition.
Then (6th day), the 6 well plate containing the embryoid bodies was inclined, and then left to stand for 1 to 2 minutes until the embryoid bodies were precipitated at the edges of the wells, and the supernatant was aspirated so as not to suck the embryoid bodies. […]

[2] = test system: cardiomyocytes from double knock-in human iPS cell lines (mCherry at TNNI3 locus); test: Experimental Example 1: mCherry (TNNI3 reporter) immunostaining measured by high contents screening; format: cell-based; details: read on 8th day, Alexa 647 anti-mCherry, control well 797; for average fluorescent intensity (at 1 μM): test compound 1 μM added on 3rd and 6th culture days; for average fluorescent intensity (at 30 μM): test compound 30 μM added on 3rd and 6th culture days
Outline: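 Double knock-in iPS lines (EmGFP at TNNI1, mCherry at TNNI3) differentiated as embryoid bodies in stirred bioreactor at 37 °C, 5% O2: BMP4/activin A/bFGF, then VEGF, IWP-3, dorsomorphin, SB431542, then VEGF alone. On day 14, dissociated cells seeded at 1.0×10^4 cells/well on iMatrix-511 in AK02-based cardiomyocyte medium.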

Compound	mCherry+ (%) [1] [%]	average fluorescent intensity (at 1 μM) [2]	average fluorescent intensity (at 30 μM) [2]
O=C1c2ccc(N3CCCCC3)cc2CN1c1ccc2[nH]c(-c3ccc(O)cc3)nc2c1 [Example 4, 2-(2-(4-hydroxyphenyl)-1H-benzimidazol-5-yl)-5-(piperidin-1-yl)isoindolin-1-one]	58.1	1621	894
O=C(COc1ccc(-c2nc3cc(N4Cc5cc(N6CCCCC6)ccc5C4=O)ccc3[nH]2)cc1)Nc1ccc2c(c1)CCS2(=O)=O [Example 17, N-(1,1-dioxido-2,3-dihydro-1-benzothiophen-5-yl)-2-(4-(5-(1-oxo-5-(piperidin-1-yl)-1,3-dihydro-2H-isoindol-2-yl)-1H-benzimidazol-2-yl)phenoxy)acetamide]	42.1	1544	1079
O=C1c2ccc(N3CCCCC3)cc2CN1c1ccc2[nH]c(-c3ccncc3)nc2c1 [Example 45, 5-(piperidin-1-yl)-2-(2-(pyridin-4-yl)-1H-benzimidazol-5-yl)isoindolin-1-one]	66.6	1130	814
O=C1c2ccc(N3CCCCC3)cc2CN1c1ccc2[nH]c(-c3cccnc3)nc2c1 [Example 46, 5-(piperidin-1-yl)-2-(2-(pyridin-3-yl)-1H-benzimidazol-5-yl)isoindolin-1-one]	47.2	1142	1616
